# Entries after “also recorded” stand apart in the source; their conditions may differ. Like-named read-outs stand apart in the source and are kept apart here.
# What was measured:
# [1] = test system: T-lymphocyte leukemia Molt3 cell line; assay: cell growth of Molt3 cell line, flow cytometric cell count; format: cell-based, human; conditions: 96 hours of culture
# KG1 cells = assay: apoptosis and cell cycle in KG1 cells (fluorescence microscopy, TUNEL); format: cell-based, human; conditions: for speed of apoptosis induction (microscopic examination): KG1, 6-72 hours of exposure, FIG. 4; for apoptotic cells in G0-G1 phase versus control cells: KG1, TUNEL with EB, FIG. 6
# Description: Nuclear morphology of the cells was analysed with the fluorochromes Hoechst 33342 (λEx max 346 nm; λEm max 460 nm) (Sigma) prepared in phosphate-buffered saline (PBS at 0.1 mg/ml, added to the culture medium at a final concentration of 2 μg/ml and ethidium bromide (EB) (λEx max 540 nm; λEm max 625 nm) (Sigma) prepared in PBS at 100 μg/ml and added to the culture medium at a final concentration of 2 μg/ml (Lizard, 1995). Hundred cells were counted for each sample and percentage of apoptosis was determined.
# Control and novel compound-treated cell cultures were washed with PBS and fixed in […] (pH 7.4) for 15 minutes on ice. After washing in PBS, cells were permeabilized in 70% cold (−20° C.) ethanol and transferred to 4° C. for at least 1 hour. After rehydratation in PBS, cells were labeled with 50 μl/well TUNEL reaction mixture (Boehringer Mannheim). Cells were incubated in this solution at 37° C. for 40 minutes, washed in PBS and resuspended in 500 μl PBS containing 5 μg/ml EB and 0.1% RNAse. After 30 minutes of incubation at 4° C., green (FITC-dUTP) and red (EB-DNA) fluorescence of individual cells was measured on a FACscan flow cytometer (Gorczyca, 1993). Negative control (fixed and permeabilized cells incubated with 50 μl label solution per well without terminal transferase, instead of TUNEL reaction mixture) and positive control (fixed and permeabilized cells incubated with DNase I (100 μg/ml) that induces DNA strand breaks) were included in each experimental set-up.
# Flow cytometric detection of apoptosis combined with DNA staining can identify apoptotic cells and simultaneously evaluate their position in the cell cycle. This technique was used to provide infomation about the possible cell cycle specific initiation of apoptosis by the tested compounds. If more than 2% of apoptotic cells were detected by the TUNEL method and the absolute number of acquired apoptotic events exceeded 2000, DNA content was simultaneously measured. Within the apoptotic population, analysis and calculation of the different cell cycle phases was carried out by an iterative curve fitting procedure (ModFit LT cell cycle analysis sofware from Verity software house, INC).
# Viable, apoptotic, necrotic (=primary necrosis, not following apoptosis) and secondarily necrotic cells (=late apoptotis, evolving to necrosis) were scored differentially after 6, 12, 24, 48 and 72 hours of exposure to novel compounds. For the three products a different apoptosis-inducing pattern could be observed. Apoptosis induction occurs fast after incubation with P23 and P28 but slower after incubation with P27.
# Flow cytometric detection of apoptosis and cell cycle analysis: The induction of apoptotic death of KG1 cells by the novel compounds was confirmed using the TUNEL reaction technique (FIG. 5). […] Incubation of KG1 cell line with P27 results in detectable apoptosis after 24 hours. Percentage of apoptotic cells in G0-G1 increases with time, while the number of apoptotic cells in S+G2/M phases decreases. […] After 6 and 12 hours of incubation the apoptotic population seems mainly to evolve from S phase.
# KG1 = assay: clonogenic output of KG1 in methylcellulose; format: cell-based, human; conditions: 25 μM, 14 days
# Description: Cell lines: Human leukemic cell lines were obtained from the American Type Culture Collection (ATCC, Rockville, Md., USA). They were cultured in Iscove's Modified Dulbecco's Medium (IMDM) supplemented with 10% heat inactivated fetal calf serum (FCS), 200 U/ml penicillin, 200 μg/ml streptomycin and 1 μg/ml amphotericin B. Cells were cultured in a 5% CO2-95% air fully humidified incubator. For effects on clonogenic output, 1000 cells/well were plated in duplicate in methylcellulose (0.9%), supplemented with 20% FCS and cultured for 14 days.
# Clonogenic output of KG1 was tested in methylcellulose with 25 μM of some of the novel compounds.
# [2] = test system: CD34+ hematopoietic progenitors (HPC) from adult bone marrow; assay: myeloid colony-forming unit (CFU) assay; format: cell-based, human; conditions: for IC50: 14 days, methylcellulose, total colony output; for output of the different types of myeloid colonies (CFU-E, CFU-G and CFU-M): scored differentially
# [3] = test system: myeloid leukemia KG1 cell line; assay: cell growth of KG1 cell line, flow cytometric cell count; conditions: for IC50: read-out: KGI IC50
# [4] = test system: PHA-stimulated lymphocytes (PBMC); assay: cell number of PHA-stimulated lymphocytes (PBMC), flow cytometry; format: cell-based, human; conditions: 96 hours, in the presence of IL-2
IC50 [1] [µM],IC50 [2] [µM],IC50 ([3]; 96 hours of culture) [µM],"IC50 ([1]; Homo sapiens, MOLT-3) [µM]","IC50 ([2]; Homo sapiens, 336 h) [µM]","IC50 ([3]; Homo sapiens, KG-1, 96 h) [µM]",Molecule,time of incubation after which apoptosis was detected (TUNEL) (KG1 cells; KG1) [h],speed of apoptosis induction (microscopic examination) (KG1 cells),apoptotic cells in G0-G1 phase versus control cells (KG1 cells),Colony output vs. control cultures without novel compound (KG1) [%],"output of the different types of myeloid colonies (CFU-E, CFU-G and CFU-M) [2]","cell number after 6 hours of exposure, wash and 7 days in drug-free medium ([3]; KG1, compared to control without novel compounds)",IC50 [4] [µM],effectiveness on KG1 compared with normal PBMC ([3]; FIG. 2),"CC50 ([4]; Homo sapiens, Lymphocyte, read-out: Lymphocytes IC50) [µM]"
14 ± 1.8,8.5,16 ± 1.3,,,,"2-(3-aminoethylamino)-6-(3,3-dihydroxybenzyl)amino-9-isopropylpurine [P28]",6,fast,increase with time after 24 hours,0,significantly lower colony output,(some) recovery of cell number,9 ± 2.2,,
,,,16 ± 0.8,> 50,8 ± 0.6,"CCCCCCNc1nc(NC(CO)c2ccccc2)c2ncn(C(C)C)c2n1 (stereo not shown) [P23, 2-(hexylamino)-6-(1-phenyl-2-hydroxyethylamino)-9-isopropylpurine]",,fast,no significant differences were detected,19,significantly lower colony output,,,significantly more effective on KG1 than on normal PBMC; also recorded: significantly more effective on KG1 than on normal-PBMC,15 ± 2
